The numbers were not newly measured in US11375717B2, “Combinations of acaricides and insect growth regulators for control of fleas without emesis in animals” (Piedmont Animal Health Inc., priority 2017, dated 2022), which cites them from elsewhere.

The conditions of this data set: 30 mg/kg in cats and 10 mg/kg in dogs.

For `O=C(NC(=O)c1c(F)cccc1F)Nc1cc(Cl)c(OC(F)(F)C(F)C(F)(F)F)cc1Cl` (stereo not shown) [Lufenuron], the Emesis result is “common side effect”.
